This note sets out measurements from patent publication US20040138188A1, “Use of TGF-beta inhibitors to counteract pathologic changes in the level or function of steroid/thyroid receptors” (priority 2002, published 2004).

Holding throughout (format): cell-based
In assay [1] the test system is glucocorticoid receptor. Put plainly: cDNA microarray, TGFβ1-induced down-regulation of glucocorticoid receptor in normal rat kidney cells (NRK). Particulars: 5 ng/ml huTGF-b1, 24 hours. As to the method:
Normal rat kidney cells (NRK) were cultured in DMEM-21 (high glucose)/10% FCS at 37° C., 5% CO2. Cells were serum starved for 24 hr before treated with 5 ng/ml huTGF-b1 (R&D System) or co-treatment with 1 μM Compound No. 81 or 0.1 μM Compound No. 74 for 24 hours.
Gene expression profiles were determined from cDNA microarrays containing approximately 9000 elements derived from clones isolated from normalized cDNA libraries or purchased from ResGen (Invitrogen Life Technologies, Carlsbad, Calif.). DNA for spotting was generated by PCR amplification using 5′amino-modified primers (BD Biosciences Clontech, Palo Alto, Calif.) derived from flanking vector sequences. […]
(§1) Total RNA was extracted from cells using Qiagen's RNeasy kit. […] Hybridization of each fluorophore was quantified using an Axon GenePix 4000A scanner.
(§2) Differential expression values were expressed as the ratio of the median of background-subtracted fluorescent intensity of the experimental RNA to the median of background-subtracted fluorescent intensity of the control RNA. For ratios greater than or equal to 1.0, the ratio was expressed as a positive value. For ratios less than 1.0, the ratio was expressed as the negative reciprocal (i.e., a ratio of 0.5=−2.0). […] Differential expression ratios were determined as the mean of the two values from dye-swapped duplicates. […]

Assay [2] deals with glucocorticoid receptor. Put plainly: cDNA microarray, TGFβ1-induced down-regulation of glucocorticoid receptor in rat lung fibroblasts (RLF). Particulars: 15 ng/ml TGFβ1, 24 hours. Here is the method: Rat lung fibroblasts (RLF) were isolated from perfused rat lung by physical and enzymatic dissociation of lung tissue. […] RLFs were cultured in FGM-2 with 2% FBS (Clonetics # CC-3132). Cells were serum starved for 24 hours, followed by the treatment with 15 ng/ml TGFβ1 (R&D System) or co-treatment with 1 μM Compound No. 81 or 0.1 μM Compound No. 74 for 24 hours.
(§3) Gene expression profiles were determined from cDNA microarrays containing approximately 9000 elements derived from clones isolated from normalized cDNA libraries or purchased from ResGen (Invitrogen Life Technologies, Carlsbad, Calif.). […]
as §1, §2

Assay [3] has as its system steroid/thyroid receptors. Put plainly: cDNA microarray, TGFβ1-induced down-regulation of steroid/thyroid receptors in human lung fibroblasts. Particulars: 5 ng/ml TGFβ1. Here is the method:
Human lung fibroblasts (Cambrex Bio Science) from a person were seeded at 4×10^5 cells (passage 4) in 100 mm dishes and cultured in complete FGM medium (Cambrex Bio Science). The next day, medium was changed to FGM without serum or fibroblast growth factor, but supplemented with 0.2% bovine serum albumin and 50 μg/m; Vitamin C. Cells were serum deprived for 24 hours prior to treating with 5 ng/ml TGFβ1 (R&D Systems) in the presence or absence of 400 nM Compound No. 79. Induction with TGFβ was carried out for various times (7.5 hours, 24 hours, and 3 days) after which RNA was harvested by lysing the cells in RLT buffer (Qiagen) and frozen at −80° C.
as §3, §1
Differential expression values were expressed as the ratio of the median of background-subtracted fluorescent intensity of the experimental RNA to the median of background-subtracted fluorescent intensity of the control RNA. For ratios greater than or equal to 1.0, the ratio was expressed as a positive value. […]

In the case of “TGF-β1: huTGF-b1 (R&D System), transforming growth factor-beta 1, used to induce receptor down-regulation”, the “down-regulation of glucocorticoid receptor expression at the transcriptional level” value with glucocorticoid receptor [1] and in the assay on glucocorticoid receptor [2] was 2 fold each time. The “expression of seven members of the steroid nuclear receptor family, including glucocorticoid receptor and retinoid receptor C alpha” value in assay [3] is “down-regulates”.
